Measurements from patent publication US11267823B2, “Substituted 1,2,3,3a,4,5,7,9,13,13a-decahydropyrido[1′,2′:4,5]pyrazino[1,2-a]pyrrolo[1,2-c]pyrimidines having HIV integrase inhibitory activity” (Shionogi & Co., Ltd., priority 2005, dated 2022).
pIC50: −log10 of the molar value.

Each compound was assayed on VSV-g pseudotyped HIV vector that expresses luciferase (PHIV) (assay: microbe, parasite or virus in culture). Conditions: Human immunodeficiency virus 1, HEK-293T, 48 h, read-out: PHIV IC50.
Format: cell-based

C[C@@H]1[C@H](c2ccccc2)OC2Cn3cc(C(=O)NCc4ccc(F)cc4F)c(=O)c(O)c3C(=O)N21 (stereo partly drawn) [Example Z-15, (2S,3R)—N-[(2,4-Difluorophenyl)methyl]-6-hydroxy-3-methyl-5,7-dioxo-2-phenyl-2,3,5,7,11,11a-hexahydro[1,3]oxazolo[3,2-a]pyrido[1,2-d]pyrazine-8-carboxamide] and COC[C@H]1[C@H](c2ccccc2)OC2Cn3cc(C(=O)NCc4ccc(F)cc4F)c(=O)c(O)c3C(=O)N21 (some centres unmarked) [Example Z-19] cannot be ordered by pIC50: over 8.00 for the first, over 8.00 for the second.

O=C(NCc1ccc(F)cc1F)c1cn2c(c(O)c1=O)C(=O)N1[C@H](Cc3ccccc3)CO[C@H]1C2 [Example Z-16, (3R,11aS)—N-[(2,4-Difluorophenyl)methyl]-6-hydroxy-5,7-dioxo-3-(phenylmethyl)-2,3,5,7,11,11a-hexahydro[1,3]oxazolo[3,2-a]pyrido[1,2-d]pyrazine-8-carboxamide] and O=C(NCc1ccc(F)cc1F)c1cn2c(c(O)c1=O)C(=O)N1[C@@H](Cc3c[nH]c4ccccc34)CO[C@@H]1C2 [Example Z-28, (3S,11aR)—N-[(2,4-Difluorophenyl)methyl]-6-hydroxy-3-(1H-indo-3-ylmethyl)-5,7-dioxo-2,3,5,7,11,11a-hexahydro[1,3]oxazolo[3,2-a]pyrido[1,2-d]pyrazine-8-carboxamide] cannot be ordered by pIC50: over 8.00 for the first, over 8.00 for the second.

CC(C)C[C@@H]1CO[C@H]2Cn3cc(C(=O)NCc4ccc(F)cc4F)c(=O)c(O)c3C(=O)N12 [Example Z-17, (3R,11aS)—N-[(2,4-Difluorophenyl)methyl]-6-hydroxy-3-(2-methylpropyl)-5,7-dioxo-2,3,5,7,11,11a-hexahydro[1,3]oxazolo[3,2-a]pyrido[1,2-d]pyrazine-8-carboxamide] and CC(C)[C@H]1CO[C@@H]2Cn3cc(C(=O)NCc4ccc(F)cc4F)c(=O)c(O)c3C(=O)N12 [Example Z-21, (3S,11aR)—N-[(2,4-Difluorophenyl)methyl]-6-hydroxy-3-(1-methylethyl)-5,7-dioxo-2,3,5,7,11,11a-hexahydro[1,3]oxazolo[3,2-a]pyrido[1,2-d]pyrazine-8-carboxamide] cannot be ordered by pIC50: over 8.00 for the first, over 8.00 for the second.

O=C(NCc1ccc(F)cc1F)c1cn2c(c(O)c1=O)C(=O)N1CC3CCCCN3[C@H]1C2 (stereo partly drawn) [Example Z-18, (3aR,14aR)—N-[(2,4-Difluorophenyl)methyl]-11-hydroxy-10,12-dioxo-1,2,3,4,5a,6,10,12,14,14a-decahydropyrido[1,2-d]pyrido[1′,2′:3,4]imidazo[1,2-d]pyrazine-9-carboxamide] and O=C(NCc1ccc(F)cc1F)c1cn2c(c(O)c1=O)C(=O)N1C[C@@H]3CCCCN3[C@@H]1C2 [Example Z-41, (5aS,14aS)—N-[(2,4-Difluorophenyl)methyl]-11-hydroxy-10,12-dioxo-1,2,3,4,5a,6,10,12,14,14a-decahydropyrido[1,2-a]pyrido[1′,2′:4,5]imidazo[1,2-d]pyrazine-9-carboxamide] cannot be ordered by pIC50: over 8.00 for the first, over 8.00 for the second.

Compared with O=C(NCc1ccc(F)cc1F)c1cn2c(c(O)c1=O)C(=O)N1[C@@H](CC3CCCCC3)CO[C@@H]1C2 [Example Z-20], CSCC[C@H]1CO[C@@H]2Cn3cc(C(=O)NCc4ccc(F)cc4F)c(=O)c(O)c3C(=O)N12 [Example Z-26, (2S,11aR)—N-[(2,4-Difluorophenyl)methyl]-6-hydroxy-3-[2-(methylthio)ethyl]-5,7-dioxo-2,3,5,7,11,11a-hexahydro[1,3]oxazolo[3,2-a]pyrido[1,2-d]pyrazine-8-carboxamide] is higher in pIC50: 7.00 to 8.00 for the first, over 8.00 for the second.

O=C(NCc1ccc(F)cc1F)c1cn2c(c(O)c1=O)C(=O)N1C(C2)O[C@@H]2Cc3ccccc3[C@@H]21 (stereo partly drawn) [Example Z-22, (5aR,14aS)—N-[(2,4-Difluorophenyl)methyl]-12-hydroxy-11,13-dioxo-5a,6a,7,11,13,14a-hexahydro-5H-indeno[1′,2′:4,5][1,3]oxazolo[3,2-a]pyrido[1,2-d]pyrazine-10-carboxamide] and O=C(NCc1ccc(F)cc1F)c1cn2c(c(O)c1=O)C(=O)N1[C@H](C2)O[C@@H](c2ccccc2)[C@H]1c1ccccc1 [Example Z-23, (2S,3R,11aS)—N-[(2,4-Difluorophenyl)methyl]-6-hydroxy-5,7-dioxo-2,3-diphenyl-2,3,5,7,11,11a-hexahydro[1,3]oxazolo[3,2-a]pyrido[1,2-d]pyrazine-8-carboxamide] cannot be ordered by pIC50: over 8.00 for the first, over 8.00 for the second.

O=C(NCc1ccc(F)cc1F)c1cn2c(c(O)c1=O)C(=O)N1[C@H](c3ccccc3)[C@H](c3ccccc3)O[C@@H]1C2 [Example Z-24, (2S,3R,11aR)—N-[(2,4-Difluorophenyl)methyl]-6-hydroxy-5,7-dioxo-2,3-diphenyl-2,3,5,7,11,11a-hexahydro[1,3]oxazolo[3,2-a]pyrido[1,2-d]pyrazine-8-carboxamide] and CC(C)[C@@H]1CO[C@H]2Cn3cc(C(=O)NCc4ccc(F)cc4F)c(=O)c(O)c3C(=O)N21 [Example Z-25, (3R,11aS)—N-[(2,4-Difluorophenyl)methyl]-6-hydroxy-3-(1-methylethyl)-5,7-dioxo-2,3,5,7,11,11a-hexahydro[1,3]oxazolo[3,2-a]pyrido[1,2-d]pyrazine-8-carboxamide] cannot be ordered by pIC50: over 8.00 for the first, over 8.00 for the second.

First: CS(=O)(=O)CC[C@H]1CO[C@@H]2Cn3cc(C(=O)NCc4ccc(F)cc4F)c(=O)c(O)c3C(=O)N12 [Example Z-27, (3S,11aR)—N-[(2,4-Difluorophenyl)methyl]-6-hydroxy-3-[2-(methylsulfonyl)ethyl]-5,7-dioxo-2,3,5,7,11,11a-hexahydro[1,3]oxazolo[3,2-a]pyrido[1,2-d]pyrazine-8-carboxamide]
Second: C[C@H]1CCN(CC2CC2)[C@@H]2Cn3cc(C(=O)NCc4ccc(F)cc4F)c(=O)c(O)c3C(=O)N12 [Example Z-32, (4S,12aS)-1-(Cyclopropylmethyl)-N-[(2,4-difluorophenyl)methyl]-7-hydroxy-4-methyl-7-hydroxy-4-methyl-6,8-dioxo-1,2,3,4,6,8,12,12a-octahydropyrido[1′,2′:4,5]pyrazino[1,2-a]pyrimidine-9-carboxamide]
The pIC50 of the first is lower: under 7.00 for the first, over 8.00 for the second.

CC(C)CN1CC[C@@H](C)N2C(=O)c3c(O)c(=O)c(C(=O)NCc4ccc(F)cc4)cn3C[C@H]12 [Example Z-29, (4R,12aR)—N-[(4-fluorophenyl)methyl]-7-hydroxy-4-methyl-1-(2-methylpropyl)-6,8-dioxo-6-[(phenylmethyl)oxy]-1,2,3,4,6,8,12,12a-octahydropyrido[1′,2′:4,5]pyrazino[1,2-a]pyrimidine-9-carboxamide] and CC(C)N1CC[C@@H](C)N2C(=O)c3c(O)c(=O)c(C(=O)NCc4ccc(F)cc4)cn3C[C@H]12 [Example Z-30, (4R,12aR)—N-[(4-Fluorophenyl)methyl]-7-hydroxy-4-methyl-1-(1-methylethyl)-6,8-dioxo-1,2,3,4,6,8,12,12a-octahydropyrido[1′,2′:4,5]pyrazino[1,2-a]pyrimidine-9-carboxamide] cannot be ordered by pIC50: over 8.00 for the first, over 8.00 for the second.

CC(C)CN1CC[C@H](C)N2C(=O)c3c(O)c(=O)c(C(=O)NCc4ccc(F)cc4F)cn3C[C@@H]12 [Example Z-31, (4S,12aS)—N-[(2,4-Difluorophenyl)methyl]-7-hydroxy-4-methyl-1-(2-methylpropyl)-6,8-dioxo-1,2,3,4,6,8,12,12a-octahydropyrido[1′,2′:4,5]pyrazino[1,2-a]pyrimidine-9-carboxamide] and CC(C)CCN1CC[C@@H](C)N2C(=O)c3c(O)c(=O)c(C(=O)NCc4ccc(F)cc4F)cn3C[C@H]12 [Example Z-43] cannot be ordered by pIC50: over 8.00 for the first, over 8.00 for the second.

C[C@H]1CCN(Cc2ccco2)[C@@H]2Cn3cc(C(=O)NCc4ccc(F)cc4F)c(=O)c(O)c3C(=O)N12 [Example Z-33, (4S,12aS)—N-[(2,4-Difluorophenyl)methyl]-1-(1-furanylmethyl)-7-hydroxy-4-methyl-6,8-dioxo-1,2,3,4,6,8,12,12a-octahydropyrido[1′,2′:4,5]pyrazino[1,2-a]pyrimidine-9-carboxamide] and C[C@H]1CCN(Cc2nccs2)[C@@H]2Cn3cc(C(=O)NCc4ccc(F)cc4F)c(=O)c(O)c3C(=O)N12 [Example Z-34, (4S,12aS)—N-[(2,4-Difluorophenyl)methyl]-7-hydroxy-4-methyl-6,8-dioxo-1-(1,3-thiazol-2-ylmethyl)-1,2,3,4,6,8,12,12a-octahydropyrido[1′,2′:4,5]pyrazino[1,2-a]pyrimidine-9-carboxamide] cannot be ordered by pIC50: over 8.00 for the first, over 8.00 for the second.

O=C(NCc1ccc(F)cc1F)c1cn2c(c(O)c1=O)C(=O)N1[C@H](C2)N[C@H]2CCCC[C@@H]21 [Example Z-39, (6aR,7aS,11aS)—N-[(2,4-Difluorophenyl)methyl]-1-hydroxy-2,13-dioxo-2,6a,7,7a,8,9,10,11,11a,13-decahydro-6H-pyrido[1′,2′:4,5]pyrazino[1,2-a]benzimidazole-3-carboxamide] and O=C(NCc1ccc(F)cc1F)c1cn2c(c(O)c1=O)C(=O)N1[C@@H](C2)N[C@H]2CCCC[C@@H]21 [Example Z-40, (6aS,7S,11aS)—N-[(2,4-Difluorophenyl)methyl]-1-hydroxy-2,13-dioxo-2,6a,7,7a,8,9,10,11,11a,13-decahydro-6H-pyrido[1′,2′:4,5]pyrazino[1,2-a]benzimidazole-3-carboxamide] cannot be ordered by pIC50: over 8.00 for the first, over 8.00 for the second.

O=C(NCc1ccc(F)cc1F)c1cn2c(c(O)c1=O)C(=O)N1CC[C@H]3CCCCN3[C@H]1C2 [Example Z-42, (4aR,14aR)—N-[(2,4-Difluorophenyl)methyl]-9-hydroxy-8,10-dioxo-2,3,4,4a,5,6,8,10,14,14a-decahydro-1H-pyrido[1,2-c]pyrido[1′,2′:4,5]pyrazino[1,2-a]pyrimidine-11-carboxamide] and CC(C)N1CC[C@H](C)N2C(=O)c3c(O)c(=O)c(C(=O)NCc4ccc(F)cc4F)cn3C[C@@H]12 [Example Z-44, (4S,12aS)—N-[(2,4-Difluorophenyl)methyl]-7-hydroxy-4-methyl-1-(1-methylethyl)-6,8-dioxo-1,2,3,4,6,8,12,12a-octahydropyrido[1′,2′:4,5]pyrazino[1,2-a]pyrimidine-9-carboxamide] cannot be ordered by pIC50: over 8.00 for the first, over 8.00 for the second.
